PubChem BioAssay (NCI)
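Values below derive from 48-hour exposures of cells grown in 96-well plates, with endpoints linearly interpolated between the two concentrations bracketing the appropriate inhibition level. TGI marks complete inhibition of growth.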 Where a SMILES comes first, the peptide text is derived from it. The star is where a group is joined. OBn = c1ccc(CO*)cc1

Assays:
Assay in all cases: DTP human tumour cell line panel, 48 h
NCI-H226 lung = test system: NCI-H226 lung
CAKI-1 renal = test system: CAKI-1 renal
MDA-MB-435 = test system: MDA-MB-435
HCT-15 colon = test system: HCT-15 colon
LOX IMVI melanoma = test system: LOX IMVI melanoma
MOLT-4 leukemia = test system: MOLT-4 leukemia
SNB-75 CNS = test system: SNB-75 CNS
SNB-19 CNS = test system: SNB-19 CNS
A549 NSCLC = test system: A549 NSCLC
MDA-MB-231 breast = test system: MDA-MB-231 breast
SF-539 CNS = test system: SF-539 CNS

| Compound | TGI (NCI-H226 lung) | TGI (CAKI-1 renal) | TGI (MDA-MB-435) | TGI (HCT-15 colon) | TGI (LOX IMVI melanoma) | TGI (MOLT-4 leukemia) | TGI (SNB-75 CNS) | TGI (SNB-19 CNS) | TGI (A549 NSCLC) | TGI (MDA-MB-231 breast) | TGI (SF-539 CNS) |
| --- | --- | --- | --- | --- | --- | --- | --- | --- | --- | --- | --- |
| O=c1c2c3c(sc2nc2n1N=CN(c1ccc(Cl)cc1)C2)CCCC3 | > 100 µM | > 100 µM | > 100 µM | > 100 µM | > 100 µM | > 100 µM | > 100 µM | > 100 µM | > 100 µM | > 100 µM |  |
| NC(CCC(=O)OCc1ccccc1)C(=O)NC(CCC(=O)OCc1ccccc1)C(=O)O (configuration not stated) (H-Glu(OBn)-Glu(OBn)-OH; configuration not given here) | > 100 µM | > 100 µM | > 100 µM | > 100 µM | > 100 µM | > 100 µM | > 100 µM | > 100 µM | > 100 µM | > 100 µM |  |
| C/C(=N/NC(=S)N1CCCC1)c1cccc(/C(C)=N\NC(=S)N2CCCC2)n1 | 3.76 µM | 3.37 µM | 3.13 µM | 4.96 µM | > 100 µM | 2.18 µM |  | 12.1 µM | 9.01 µM | 3.23 µM | 3.72 µM |
| CN1CCN(C(=S)N(C)C(=O)c2cccs2)CC1 | > 100 µM |  | > 100 µM | > 100 µM | > 100 µM | > 100 µM |  | > 100 µM | > 100 µM | > 100 µM |  |
| CSC(=N)N1N=C2c3ccccc3CC[C@@H]2[C@@H]1c1ccccc1 | 22.6 µM |  |  | 31 µM | 28.5 µM | 35.8 µM |  | 34 µM | 34.2 µM |  | 27.2 µM |
| COC(=O)c1c(C(=O)OC)c(C(c2ccccc2)c2ccccc2)n(-c2ccccc2)c1Cl | > 10 µM | > 10 µM | > 10 µM | > 10 µM |  | 8.1 µM |  | > 10 µM | > 10 µM | > 10 µM | > 10 µM |
| O=C1c2ccccc2C(=O)c2c(O)c(O)cc(O)c21 |  | > 100 µM |  | > 100 µM | > 100 µM | 97.9 µM | > 100 µM | > 100 µM | > 100 µM |  | 66 µM |
| COc1ccccc1N1C(=O)/C(=C\c2cc(OC)c(OC)c(OC)c2)S(=O)(=O)C1c1ccccc1 (configuration not stated) | > 100 µM | > 100 µM | 41.3 µM | > 100 µM | > 100 µM | > 100 µM |  | > 100 µM | > 100 µM | > 100 µM | 68 µM |
| O=C(Nc1ccccc1)C(=O)C(C(=O)c1ccccc1)C(c1ccccc1)c1ccccc1 (configuration not stated) |  | > 10 µM | > 10 µM | > 10 µM | > 10 µM | > 10 µM | > 10 µM |  | > 10 µM | > 10 µM |  |
| O=C(/C=C\c1ccccc1-c1ccccc1)c1ccccc1 | > 100 µM | > 100 µM | > 100 µM | > 100 µM |  | > 100 µM | > 100 µM |  | 91.9 µM | > 100 µM | > 100 µM |
| COc1ccc(N2C(=O)/C(=C\c3cc(OC)c(OC)c(OC)c3)S(=O)(=O)C2c2ccccc2)cc1 (configuration not stated) | > 100 µM | > 100 µM | 72.3 µM | > 100 µM | > 100 µM | > 100 µM |  | > 100 µM | > 100 µM | > 100 µM | > 100 µM |
| COc1ccc(C(CC(=O)c2ccccc2)C(=O)c2ccc3c(c2)OCO3)cc1 (configuration not stated) | > 100 µM | > 100 µM | > 100 µM | > 100 µM |  | > 100 µM | > 100 µM | > 100 µM | > 100 µM | > 100 µM |  |
| O=C(/C=C/c1cccs1)c1ccc(C(=O)/C=C/c2cccs2)cc1 | > 100 µM | > 100 µM | > 100 µM | > 100 µM |  | > 100 µM | > 100 µM | > 100 µM | > 100 µM | > 100 µM | > 100 µM |
| Cc1ccc(S(=O)(=O)n2cnc(CC(NC(=O)C3CCC(=O)N3C(=O)OCc3ccccc3)C(=O)N3CCCC3C(=O)NN)c2)cc1 (configuration not stated) | > 100 µM |  |  | > 100 µM |  | > 100 µM | > 100 µM | > 100 µM | > 100 µM | > 100 µM |  |
| Cc1n[nH]c(=O)n1/N=C/c1cccnc1 | > 100 µM | > 100 µM | > 100 µM | > 100 µM | > 100 µM | > 100 µM |  | > 100 µM | > 100 µM | > 100 µM | > 100 µM |
| Cc1cc2nc3c(C#N)c(-c4ccccc4)cc(Nc4ccc(F)cc4)n3c2cc1C | 73.7 µM | > 100 µM | > 100 µM | > 100 µM | 29 µM | > 100 µM | 57.5 µM |  |  | 51.1 µM | 34.8 µM |
| Cc1ccnc2nc3[nH]c4ccccc4c3cc12 | > 100 µM | > 100 µM | > 100 µM | > 100 µM | > 100 µM | > 100 µM | 85.8 µM |  | > 100 µM | > 100 µM | > 100 µM |

| Compound | TGI (NCI-H226 lung) | TGI (CAKI-1 renal) | TGI (MDA-MB-435) | TGI (HCT-15 colon) | TGI (LOX IMVI melanoma) | TGI (MOLT-4 leukemia) | TGI (SNB-75 CNS) | TGI (SNB-19 CNS) | TGI (A549 NSCLC) | TGI (MDA-MB-231 breast) | TGI (SF-539 CNS) |
| --- | --- | --- | --- | --- | --- | --- | --- | --- | --- | --- | --- |
| CN(C)CCN1C(=O)c2ccccc2C1(O)c1ccc(Cl)cc1 (configuration not stated) | > 100 µM | > 100 µM | > 100 µM | > 100 µM |  | > 100 µM | > 100 µM | > 100 µM | > 100 µM | > 100 µM |  |
| C=CC(c1ccccc1)C1(O)c2cccc(O)c2C(=O)c2c(O)cccc21 (configuration not stated) | 39.8 µM | 42.5 µM | 22 µM | 29.4 µM | 29.9 µM | 46.8 µM | 41.8 µM |  | 32.9 µM | 36.7 µM | 84.5 µM |
| C=C1CC(COc2ccc3ccc(=O)oc3c2)(c2ccccc2)OC1=O (configuration not stated) | 12.4 µM | 2.52 µM | 7.82 µM | 4.13 µM | 2.57 µM | 4.16 µM | 12.2 µM | 28.5 µM | 27.8 µM | 6.88 µM |  |
| N#CC1=C(N)Nc2nc3ccccc3n2C1c1ccccc1 (configuration not stated) |  | > 100 µM | > 100 µM | > 100 µM | > 100 µM | > 100 µM |  | > 100 µM | > 100 µM | > 100 µM | > 100 µM |
| COc1ccc(-n2cnc3c(NC(C)(C)C(=O)O)ncnc32)cc1 | > 100 µM | > 100 µM | > 100 µM | > 100 µM | > 100 µM | > 100 µM | > 100 µM | > 100 µM | > 100 µM | > 100 µM |  |
| CC(C)=CCC[C@@H](C)C1=C(Nc2ccccc2)C(O)=C(C)C(=O)C1=O | 18.1 µM | 11.8 µM | > 48.3 µM | 13.4 µM | 97.1 µM | > 22.7 µM | 15.6 µM | 22.8 µM | 13.5 µM | > 27.4 µM |  |
| CCOC(=O)c1c(NC(=O)c2ccc(OC)cc2)sc2c1CCCC2 | > 100 µM | > 100 µM | > 100 µM |  |  | > 100 µM |  | > 100 µM | > 100 µM | > 100 µM | > 100 µM |
| COc1cc(CCCC(O)COc2cccc3c2C2(O)CCCCCC32)cc(OC)c1 (configuration not stated) | 33.9 µM | 44.4 µM |  | 34 µM |  | 48.2 µM | 30.2 µM | 32 µM | 30.8 µM |  | 28.1 µM |
| Cc1nc2ccc(N=NN(C)C)cc2[nH]1 | > 100 µM | > 100 µM | > 100 µM | > 100 µM | > 100 µM | > 100 µM | > 100 µM | > 100 µM | > 100 µM | > 100 µM |  |
| O=C1c2cccnc2C(=O)c2c1nc1ccccc1c2-c1cncc(-c2c3c(nc4ccccc24)C(=O)c2cccnc2C3=O)c1 | 0.883 µM | 1.64 µM | 0.9 µM | 0.414 µM | 0.449 µM | 0.788 µM | 1.6 µM | 1.57 µM | 2.6 µM | 0.928 µM |  |
| CC1=CCC[C@]2(C)C1=CC(=O)O[C@H]2c1ccoc1 | > 100 µM | > 100 µM | > 100 µM | > 100 µM | > 100 µM | > 100 µM | > 100 µM | > 100 µM | > 100 µM | > 100 µM |  |
| O=c1[nH]n(Cc2ccccc2CCl)c2ccc([N+](=O)[O-])cc12 | > 100 µM | 63.3 µM | > 100 µM | > 100 µM | > 100 µM | 90.8 µM |  | > 100 µM | > 100 µM | > 100 µM | > 100 µM |
| COC(=O)c1cc(C#N)[nH]c1-c1cccs1 | > 100 µM | > 100 µM | > 100 µM | > 100 µM |  | > 100 µM | > 100 µM | > 100 µM | > 100 µM | > 100 µM | > 100 µM |
| Cc1cc(NCC2CC/C(=C\C=C\c3ccccc3)C2=O)no1 (configuration not stated) | > 100 µM | > 100 µM | > 100 µM | > 100 µM | > 100 µM | > 100 µM |  | > 100 µM | > 100 µM | > 100 µM | > 100 µM |
| Cc1ccccc1NC(=O)/C(C#N)=N\Nc1nc[nH]c1C(N)=O | > 100 µM | 18.2 µM | > 100 µM | > 100 µM |  | > 100 µM | > 100 µM | > 100 µM | > 100 µM | > 100 µM |  |
| CCCCc1ccc(N2C(=O)c3cccnc3S2(=O)=O)cc1 | > 100 µM | > 100 µM | > 100 µM | > 100 µM |  | > 100 µM | > 100 µM | > 100 µM | > 100 µM | > 100 µM | > 100 µM |
